Where two headings read alike, the source gives them in different places.
Columns and labels:
[1] = system: epidermal layer in rats; assay: Adverse reactions of continuous dermal administration: thickness of the epidermal layer (H&E sections); assay type: in vivo, SD rats; details: for Epidermal layer thickness (µm): 100 mg cream on the back twice a day for a week (compounds 1 mg/g, Compound Dexamethasone Acetate 0.75 mg/g); for thickness of the epidermal layer after continuous dermal administration: compared with the blank control group
Source text: Pharmacological Example 10: Experiment on Adverse Reactions of Continuous Dermal Administration in Rats
Animals: SD rats, SPF grade, with an equal number of males and females, weighing 230-250 g.
Animal grouping: After adaptive feeding, the rats were randomly divided into 4 groups. […] One day before administration, the backs of rats were shaved at an area of 5 cm × 6 cm. […] The rats in the blank control group were applied with the blank matrix of corresponding mass on their backs, twice a day for a consecutive week. Table 21. Animal grouping and drug administration dosages for the experiment on adverse reactions of continuous dermal administration in rats
To examine the effects of continuous administration of the test samples on the epidermal layer, the back skin tissues were stained with hematoxylin and eosin (H&E) (magnification ×40), and the thickness of the epidermal layer was quantitatively measured based on the H&E-stained sections.

[2] = system: dry eye syndrome model New Zealand rabbits; assay: Dry eye syndrome experiment (benzalkonium chloride model): tear film break-up time; assay type: in vivo, male New Zealand White rabbits; details: for tear film break-up time: compared with the model group
Protocol: Positive control drug: Fluorometholone Eye Drops (specification: 5 mL/5 mg; Santen Pharmaceutical (CHINA) Co., Ltd.; Lot No.: 1FM6625) was used as the positive control drug and stored at room temperature protected from light until use.
Thirty male New Zealand White rabbits (conventional grade) were prepared. Six rabbits were randomly selected as the blank control group, and the remaining animals were administered 0.1% benzalkonium chloride to the left eye twice daily (morning and evening) , 10 µL/animal each time. On day 6 of modeling, tear secretion was measured using phenol red cotton threads to determine whether the model was successfully established. […] During the administration, all animals except the blank control group were administered 10 µL of 0.1% benzalkonium chloride to the left eye once daily to maintain dry eye symptoms..
• Test time: D3, D7, D15; • Test animals: All animals were tested before grouping; all enrolled surviving animals were tested after administration; • Test method: 1% Fluorescein sodium was dropped onto the inner side of the rabbit's lower eyelid, 10 µL/animal. The rabbit's eyes were closed and gently massaged to evenly distribute the fluorescein sodium on the eye surface. The rabbit's eyes were then sequentially placed under a slit lamp. The tear film break-up time was observed and recorded as the time from eye opening to the appearance of the first dark spot. If no dark spot appeared, the time was calculated as 60 seconds.
The normality and homogeneity of variance were tested by Levene's test. If there was no statistical significance (P > 0.05), one-way analysis of variance (ANOVA) was used for statistical analysis. If ANOVA was statistically significant (P ≤ 0.05), LSD test (parametric method) was used for comparative analysis. If the variance was heterogeneous (P ≤ 0.05), Kruskal-Wallis test was used. If the Kruskal-Wallis test was statistically significant (P ≤ 0.05), Dunnett's test (nonparametric method) was used for comparative analysis.

[3] = system: intraocular pressure of guinea pigs; assay: Adverse reactions of continuous ocular administration: intraocular pressure; assay type: in vivo; details: for Intraocular pressure of guinea pigs (mmHg) D0: D0, before administration; for Intraocular pressure of guinea pigs (mmHg) D0 / Intraocular pressure of guinea pigs (mmHg) D7 / Intraocular pressure of guinea pigs (mmHg) D14 / Intraocular pressure of guinea pigs (mmHg) D21 / Intraocular pressure of guinea pigs (mmHg) D28: 50 µL/eye (compounds and fluorometholone 1 mg/mL, loteprednol 5 mg/mL)
Protocol: Pharmacological Example 9: Experiment on Adverse Reactions of Continuous Ocular Administration in Guinea Pigs
Test samples: Compounds 17 and 23 were prepared as 5 mg/5 mL ophthalmic suspensions with reference to the formulation of Fluorometholone Eye Drops, and stored at room temperature protected from light until use.
Positive control drug: Fluorometholone Eye Drops (specification: 5 mL/5 mg; Santen Pharmaceutical (CHINA) Co., Ltd.; Lot No.: 1FM6545), Loteprednol Etabonate Eye Drops (specification 0.5% (5 mg/mL); Shandong Bausch & Lomb Freda Pharmaceutical Co., Ltd; Lot No. 386521), stored at room temperature protected from light until use.
Animals: 50 guinea pigs, conventional grade, with an equal number of males and females, weighing 300-350 g..
Animal grouping: After 5 days of adaptive feeding, the guinea pigs were randomly divided into 5 groups based on body weight. Group 1 was the blank control group, and 50 µL of normal saline was dropped into the eyes (bilateral) of the guinea pigs. Groups 2 to 5 were the fluorometholone group, loteprednol group, compound 17 group, and compound 23 group, respectively, and the corresponding drugs were dropped into the eyes (bilateral) of the guinea pigs. Table 19. Animal grouping and drug administration dosages for the experiment on adverse reactions of continuous ocular administration in guinea pigs
Intraocular pressure measurement time: The intraocular pressure of animals in each group was measured before administration and on days 7, 14, 21, and 28 post-administration.

[4] = system: psoriasis model mice; assay: Psoriasis experiment (imiquimod model): skin lesion (PASI) score; assay type: in vivo; details: for PASI scores: compared with the model group; for PASI score: day 8 of modeling, 0.2 g cream per mouse daily for 7 days (compounds 1 mg/g, fluticasone propionate 0.5 mg/g)
Protocol: Positive control drug: Fluticasone Propionate Cream (specification: 0.05% × 15 g, Zhejiang Xianju Pharmaceutical Co. Ltd., Lot No. 211106), stored at room temperature protected from light until use.
Adult mice were selected, and the skin of 2 cm × 3 cm on the back of mice was locally depilated. The mice in the model group and drug administration group were applied with 62.5 mg of 5% imiquimod cream on their back for modeling, while the mice in the blank control group were applied with medical petroleum jelly on their back daily. The above procedures were performed once a day for 7 consecutive days.
The mice in the drug administration group were applied with the corresponding drugs on their backs daily at a dose of 0.2 g per mouse, while the blank control group and the model group were only applied with 0.2 g of the test sample drug matrix. One hour after drug administration, the drugs were wiped off with sterile cotton swabs, followed by the application of imiquimod. The above procedures were performed once a day for 7 consecutive days.
Referring to the clinical Psoriasis Area and Severity Index (PASI) scoring criteria, erythema, scaling, and thickness at the skin lesion sites were evaluated on a 0-4 scale on day 8 of modeling, and the total score was obtained by summing the three items.
• (1) Erythema: a score of 0 points indicates no erythema, a score of 1 point indicates erythema appearing light red, a score of 2 points indicates erythema appearing red, a score of 3 points indicates erythema appearing dark red, and a score of 4 points indicates erythema appearing extremely deep red; • (2) Scaling: a score of 0 points indicates no scaling on the surface, a score of 1 point indicates partial skin lesions covered with scaling, a score of 2 points indicates most skin lesions covered with scaling, a score of 3 points indicates almost all skin lesions covered with scaling in layers, and a score of 4 points indicates all skin lesions covered with scaling; • (3) Thickness: a score of 0 points indicates skin lesions flush with normal skin, a score of 1 point indicates skin lesions slightly elevated above normal skin surface, a score of 2 points indicates moderate elevation of skin lesions, a score of 3 points indicates thickened skin lesions with obvious elevation, and a score of 4 points indicates highly thickened skin lesions with prominent elevation.
Statistical analysis was performed using SPSS software, and the results were expressed as mean ± standard deviation. One-way ANOVA was used for intergroup comparisons. For data with homogeneous variance, the LSD test was used; for data with heterogeneous variance, the Dunnett-t test was used. A value of P < 0.05 was considered statistically significant.

[5] = Stability in animal lung tissue homogenate, skin tissue homogenate and aqueous humor; assay type: in vitro ADME
[6] = target: T1, progesterone receptor (PR) (Homo sapiens, UniProt P06401); assay: Assay for agonist activity on progesterone receptor (luciferase reporter, HEK293 cells transfected with pBIND-PR plasmid); assay type: cell-based; details: for Target selectivity PR/GR: ratio of EC50 values
T1 sequence (P06401 678-933): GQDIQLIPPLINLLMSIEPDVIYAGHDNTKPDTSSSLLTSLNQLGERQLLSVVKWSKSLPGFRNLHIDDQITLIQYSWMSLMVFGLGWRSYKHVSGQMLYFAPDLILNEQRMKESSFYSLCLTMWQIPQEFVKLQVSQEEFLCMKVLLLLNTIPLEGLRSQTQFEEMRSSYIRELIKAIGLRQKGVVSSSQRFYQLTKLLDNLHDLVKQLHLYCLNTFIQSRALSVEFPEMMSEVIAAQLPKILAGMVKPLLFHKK
In short: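 HEK293 cells transiently transfected with pBIND-MR or pBIND-PR, seeded in phenol red-free DMEM with 5% charcoal-stripped serum. Compounds tested as 12-point 4-fold dilutions from 50 µM in duplicate, 0.1% DMSO blank. Luciferase luminescence read, EC50 by nonlinear fit.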

[7] = EC50 of agonist activity, HEK293 reporter cells, top concentration 50 µM, read-out: Nuclear receptor enzyme activity (nM) PR

| Structure (SMILES) | Epidermal layer thickness (µm) [1] [µm] | thickness of the epidermal layer after continuous dermal administration [1] | tear film break-up time [2] | intraocular pressure after continuous ocular administration [3] | Intraocular pressure of guinea pigs (mmHg) D0 [3] [mmHg] | Intraocular pressure of guinea pigs (mmHg) D7 [3] [mmHg] | Intraocular pressure of guinea pigs (mmHg) D14 [3] [mmHg] | Intraocular pressure of guinea pigs (mmHg) D21 [3] [mmHg] | Intraocular pressure of guinea pigs (mmHg) D28 [3] [mmHg] | PASI scores [4] | PASI score [4] | stability in animal lung tissue homogenate, skin tissue homogenate, and aqueous humor [5] | EC50 [6, 7] [nM] | Target selectivity PR/GR [6] | Tear film break-up time (s) D3 ([2]; D3, 1 mg/mL, 50 µL/eye, 3 times a day for 14 days) [s] | Tear film break-up time (s) D7 ([2]; D7, 1 mg/mL, 50 µL/eye, 3 times a day for 14 days) | Tear film break-up time (s) D15 ([2]; D15, 1 mg/mL, 50 µL/eye, 3 times a day for 14 days) | EC50 [6] [nM] |
| --- | --- | --- | --- | --- | --- | --- | --- | --- | --- | --- | --- | --- | --- | --- | --- | --- | --- | --- |
| C[C@]12C=CC(=O)C=C1CC[C@H]1[C@@H]3C[C@H]4OC(c5ccc(CSC6CCOC6=O)cc5)O[C@@]4(C(=O)CO)[C@@]3(C)C[C@H](O)[C@@]12F (stereo partly drawn) [Compound 17, (6aS,6bR,7S,8aS,8bS,11aR,12aS,12bS)-6b-Fluoro-7-hydroxy-8b-(2-hydroxyacetyl)-6a,8a-dimethyl-10-(4-(((2-oxotetrahydrofuran-3-yl)thio)methyl)phenyl)-1,2,6a,6b,7,8,8a,8b,11a,12,12a,12b-do decahydro-4H-naphtho[2',1':4,5]indeno[1,2-d][1,3]dioxol-4-one] | 23.5 ± 3.5 | no significant changes in the thickness of the epidermal layer were observed | significantly increased the tear film break-up time | no abnormal intraocular pressure was observed | 13.5 ± 0.6 | 16.0 ± 1.4 | 14.5 ± 1.9 | 13.3 ± 2.5 | 14.3 ± 1.5 | PASI scores significantly decreased on day 7 | 4.5 ± 0.6 | relatively stable | > 50000 | > 1.7×10^5 | – | – | – | – |
| C[C@]12C=CC(=O)C=C1CC[C@H]1[C@@H]3C[C@H]4OC(c5ccc(CSC6CCOC6=O)cc5)O[C@@]4(C(=O)CO)[C@@]3(C)C[C@H](O)[C@@]12Cl (stereo partly drawn) [Compound 23, (6aS,6bR,7S,8aS,8bS,11aR,12aS,12bS)-6b-Chloro-7-hydroxy-8b-(2-hydroxyacetyl)-6a,8a-dimethyl-10-(4-(((2-oxotetrahydrofuran-3-yl)thio)methyl)phenyl)-1,2,6a,6b,7,8,8a,8b,11a,12,12a,12b-do decahydro-4H-naphtho[2',1':4,5]indeno[1,2-d][1,3]dioxol-4-one] | 24.3 ± 1.1 | no significant changes in the thickness of the epidermal layer were observed | significantly increased the tear film break-up time on day 15 | no abnormal intraocular pressure was observed | 13.5 ± 0.6 | 15.3 ± 1.7 | 15.3 ± 1.5 | 15.3 ± 2.2 | 14.9 ± 1.6 | PASI scores significantly decreased on day 7 | 3.8 ± 1.0 | relatively stable | > 50000 | > 2.4×10^5 | 45.67 ± 13.69 | 49.33 ± 8.91" s | 50.67 ± 10.41" s | – |
| C[C@]12C=CC(=O)C=C1CC[C@H]1[C@@H]3C[C@H]4OC(c5ccc(CSC6CCOC6=O)nc5)O[C@@]4(C(=O)CO)[C@@]3(C)C[C@H](O)[C@@]12F (stereo partly drawn) [Compound 47, (6aS,6bR,7S,8aS,8bS,11aR,12aS,12bS)-6b-Fluoro-7-hydroxy-8b-(2-hydroxyacetyl)-6a,8a-dimethyl-10-(6-(((2-oxotetrahydrofuran-3-yl)thio)methyl)pyridin-3-yl)-1,2,6a,6b,7,8,8a,8b,11a,12,12a,12 b-dodecahydro-4H-naphtho[2',1':4,5]indeno[1,2-d][1,3]dioxol-4-one] | – | no significant changes in the thickness of the epidermal layer observed | significantly increased the tear film break-up time | no abnormal intraocular pressure observed | – | – | – | – | – | significantly decreased PASI scores on day 7 | – | relatively stable | – | > 1.5×10^5 | – | – | – | > 50000 |
| C[C@]12C=CC(=O)C=C1CC[C@H]1[C@@H]3C[C@H]4OC(c5ccc(COC6CCOC6=O)cc5)O[C@@]4(C(=O)CO)[C@@]3(C)C[C@H](O)[C@@]12Cl (stereo partly drawn) [Compound 22, (6aS,6bR,7S,8aS,8bS,11aR,12aS,12bS)-6b-Chloro-7-hydroxy-8b-(2-hydroxyacetyl)-6a,8a-dimethyl-10-(4-(((2-oxotetrahydrofuran-3-yl)oxy)methyl)phenyl)-1,2,6a,6b,7,8,8a,8b,11a,12,12a,12b-do decahydro-4H-naphtho[2',1':4,5]indeno[1,2-d][1,3]dioxol-4-one] | – | no significant changes in the thickness of the epidermal layer observed | significantly increased the tear film break-up time | no abnormal intraocular pressure observed | – | – | – | – | – | significantly decreased PASI scores on day 7 | – | relatively stable | – | > 9.1×10^4 | – | – | – | > 50000 |
| C[C@]12C=CC(=O)C=C1[C@@H](F)C[C@H]1[C@@H]3C[C@H]4OC(c5ccc(CSC6CCOC6=O)cc5)O[C@@]4(C(=O)OCF)[C@@]3(C)C[C@H](O)[C@@]12F (stereo partly drawn) [Compound 36, Fluoromethyl (2S,6aS,6bR,7S,8aS,8bS,11aR,12aS,12bS)-2,6b-difluoro-7-hydroxy-6a,8a-dimethyl-4-oxo-10-(4-( ((2-oxotetrahydrofuran-3-yl)thio)methyl)phenyl)-1,2,4,6a,6b,7,8,8a,11a,12,12a,12b-dodecahydro-8bH-naphtho[2',1':4,5]indeno[1,2-d][1,3]dioxole-8b-carboxylate] | – | no significant changes in the thickness of the epidermal layer observed | significantly increased the tear film break-up time | no abnormal intraocular pressure observed | – | – | – | – | – | significantly decreased PASI scores on day 7 | – | relatively stable | – | > 4.2×10^5 | – | – | – | > 50000 |
| C[C@]12C=CC(=O)C=C1CC[C@H]1[C@@H]3C[C@H]4OC(c5ccc(COC6CCOC6=O)cc5)O[C@@]4(C(=O)CO)[C@@]3(C)C[C@H](O)[C@@]12F (stereo partly drawn) [Compound 16, (6aS,6bR,7S,8aS,8bS,11aR,12aS,12bS)-6b-Fluoro-7-hydroxy-8b-(2-hydroxyacetyl)-6a,8a-dimethyl-10-(4-(((2-oxotetrahydrofuran-3-yl)oxy)methyl)phenyl)-1,2,6a,6b,7,8,8a,8b,11a,12,12a,12b-do decahydro-4H-naphtho[2',1':4,5]indeno[1,2-d][1,3]dioxol-4-one] | – | no significant changes in the thickness of the epidermal layer observed | significantly increased the tear film break-up time | no abnormal intraocular pressure observed | – | – | – | – | – | significantly decreased PASI scores on day 7 | – | relatively stable | – | > 1.2×10^5 | – | – | – | > 50000 |
